# Results reported in patent US9677079B2, “Yeast cells expressing amyloid beta and uses therefor” (Whitehead Insititute for Biomedical Research, priority 2010, dated 2017).
# “Also recorded” adds a separate entry of the source.
# Key:
# [1] = test system: strain expressing toxic levels of Aβ (ssAβ 1-42 strain); experiment: Clioquinol rescue: growth in liquid culture of ssAβ 1-42 strain and YFP control strain (Bioscreen, OD600); format: cell-based, Saccharomyces cerevisiae; conditions: FIG. 4
# Experimental: To further test the effect of clioquinol, a control strain and a strain expressing toxic levels of Aβ were grown in liquid culture with various concentrations of the compound.
# To generate ssAβ1-42 screening strains the ssAβ1-42 construct was moved to a pAG Gal p305 expression vector (S. Alberti, A. D. Gitler, S. Lindquist, A suite of Gateway cloning vectors for highthroughput genetic analysis in Saccharomyces cerevisiae. Yeast 24, 913 (2007)). The plasmid was digested using BstX1, gel purified and transformed into W303. The transformation was carried out in duplicate and the level of growth of 16 transformants each was tested on synthetic deficient media lacking leucine with galactose. Two strains from the independent transformations where chosen as screening strains based on their robust yet intermediate toxicity that would allow for the identification of both suppressors and enhancers. […] The control strain for wild type yeast growth is carrying a Gal inducible YFP integrated in the same fashion as the ssAβ1-42 constructs. For spotting assays strains were grown over night at 30° C. in 3 ml SD media lacking the relevant amino acids and containing glucose. Cell concentrations (OD600) were adjusted in a 96-well plate to that of the strain with the lowest concentration. Cells were then 5 fold serially diluted and spotted on SD media containing glucose (Uninduced) and galactose (Induced). Plates were incubated at 30° C. for 2 (glucose) or 3 days (galactose).
# Yeast strains were grown overnight to saturation in synthetic medium with glucose as the carbon source after inoculation from a colony. These cultures were used to inoculate raffinose cultures. Raffinose cultures in log phase growth (OD600 0.7-0.9) were diluted to an OD600 of 0.03 in synthetic medium with galactose as the carbon source, and […] of the cell suspension was distributed to each well of a Bioscreen plate. […] of clioquinol (Sigma C8133, ˜95%), dissolved in DMSO at 100 times the final intended concentration, was added to each well. […]
# [2] = test system: GAL1-induced expression (GAL controlled YFP); experiment: GAL1-induced expression measured by flow cytometry of GAL controlled YFP; format: cell-based, Saccharomyces cerevisiae; conditions: flow cytometry of GAL controlled YFP (data not shown)
smiles,measurement,setting,value
Oc1c(I)cc(Cl)c2cccnc12 [clioquinol],toxicity at higher concentrations,"[1]; higher concentrations, ssAβ 1-42 strain and YFP control strain",toxic to both strains
same,growth at the optimal concentration compared with control strain,"[1]; optimal concentration, control strain expressing YFP",nearly as robust as that of the control strain; also recorded: restored growth levels to those of a control strain expressing YFP
same,growth of the Aβ expressing strain (dose dependence of rescue),"[1]; ssAβ 1-42 strain in inducing (galactose) media, various concentrations",improved the growth of the Aβ expressing strain in a dose dependent manner; also recorded: rescued growth levels in a dose dependent manner
same,effect on GAL1-induced expression,[2],did not diminish GAL1-induced expression
